Paper PMC4871228 (European journal of medicinal chemistry, 2015)
Like-named read-outs stand apart in the source and are kept apart here.

Columns and labels:
KAT8 [1] = target: T1, KAT8 (Homo sapiens, UniProt Q9H7Z6); experiment: Isothermal titration calorimetry, titration to KAT8; type: binding; conditions: ITC, Ac-CoA vs KAT8
T1 sequence (Q9H7Z6 1-458): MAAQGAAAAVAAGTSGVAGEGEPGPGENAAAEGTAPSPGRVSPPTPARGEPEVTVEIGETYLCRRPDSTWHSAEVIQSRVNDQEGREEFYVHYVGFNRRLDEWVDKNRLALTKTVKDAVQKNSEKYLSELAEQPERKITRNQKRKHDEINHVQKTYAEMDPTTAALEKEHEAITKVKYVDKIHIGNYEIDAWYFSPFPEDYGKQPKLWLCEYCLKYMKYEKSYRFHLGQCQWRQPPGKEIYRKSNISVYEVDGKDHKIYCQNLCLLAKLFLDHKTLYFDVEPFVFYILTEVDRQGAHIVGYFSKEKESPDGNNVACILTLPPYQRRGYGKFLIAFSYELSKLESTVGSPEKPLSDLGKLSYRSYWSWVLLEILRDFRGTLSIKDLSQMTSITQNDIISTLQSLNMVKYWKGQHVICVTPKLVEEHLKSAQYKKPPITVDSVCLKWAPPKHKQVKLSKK

KAT8 [2] = target: T1, KAT8; experiment: Steady-state enzyme kinetics of KAT8 substrates; type: biochemical; conditions: for Km: read-out: Km of Ac-CoA
KAT8 [3] = target: T1, KAT8; experiment: KAT8 inhibition, fluorescence-based assay detecting CoA with CPM; type: biochemical; conditions: within the investigated range of concentrations (up to 400 µM)

CC(=O)SCCNC(=O)CCNC(=O)[C@H](O)C(C)(C)COP(=O)(O)OP(=O)(O)OC[C@H]1O[C@@H](n2cnc3c(N)ncnc32)[C@H](O)[C@@H]1OP(=O)(O)O [Ac-CoA, acetyl coenzyme A] was tested, and the “-TΔS” value (KAT8 [1]) was −17228 cal/mol/degK, the Kd (KAT8 [1]) was 8.7 ± 1.2 µM and the “N (stoichiometry)” value (KAT8 [1]) was 0.95. The ΔG (KAT8 [1]) was −6758, the ΔH (KAT8 [1]) was 10.47 ± 0.47 kcal/mol and the “Vmax of Ac-CoA” value (KAT8 [2]; 15 µM histone H4 peptide) was 3.4 ± 0.2 pmol/min. The “kcat of Ac-CoA” value (KAT8 [2]; 15 µM histone H4 peptide) was 0.0033 ± 0.00033 s⁻¹, the “Vmax of Ac-CoA” value (KAT8 [2]; 30 µM histone H4 peptide) was 4.5 ± 0.3 pmol/min and the “kcat of Ac-CoA” value (KAT8 [2]; 30 µM histone H4 peptide) was 0.005 ± 0.00033 s⁻¹. The “Vmax of Ac-CoA” value (KAT8 [2]; 60 µM histone H4 peptide) was 9.9 ± 0.3 pmol/min, the “kcat of Ac-CoA” value (KAT8 [2]; 60 µM histone H4 peptide) was 0.012 ± 0.00067 s⁻¹ and the “Vmax of Ac-CoA” value (KAT8 [2]; 90 µM histone H4 peptide) was 14.7 ± 0.6 pmol/min. For the same compound, the “kcat of Ac-CoA” value (KAT8 [2]; 90 µM histone H4 peptide) was 0.0183 ± 0.001 s⁻¹, the Km (KAT8 [2]; 15 µM histone H4 peptide) was 1.1 ± 0.3 µM and the Km (KAT8 [2]; 30 µM histone H4 peptide) was 1.2 ± 0.3 µM. It also gave a Km (KAT8 [2]; 60 µM histone H4 peptide) of 2.1 ± 0.3 µM and a Km (KAT8 [2]; 90 µM histone H4 peptide) of 2.8 ± 0.5 µM.
For O=C(O)c1c(O)cccc1CCCCCCCCCCCO [Compound 8b], the “KAT8 inhibitory potency (in words)” value (KAT8 [3]) was “loss of potency”.
In the case of CCCCCc1ccc(O)c(C(=O)O)c1 [Compound 11c], the “KAT8 inhibitory potency (in words)” value (KAT8 [3]) is reported as “completely lose their affinity”.
CCCCCCCSCC(=O)c1ccccc1O [Compound 13] was tested, and the “KAT8 inhibitory potency (in words)” value (KAT8 [3]) was “completely removed activity”.
With CCCCCc1cccc(O)c1C(=O)O [Compound 14] the “KAT8 inhibitory potency (in words)” value (KAT8 [3]) was “completely lose their affinity”.
